# Experimental data from US20230399321A1, “CRYSTALLINE FORM II OF MELANOCORTIN RECEPTOR AGONIST COMPOUND AND PREPARATION METHOD THEREFOR” (LG CHEM, LTD., priority 2020, published 2023).
# Counter-ions that a name gives are not always drawn.
# Experiments:
# [1] = Stability assessment by HPLC after storage; type: physicochemical; conditions: for HPLC analysis result, Open ACC: open state, accelerated condition (40° C., 75% RH); for HPLC analysis result, Open ACC / HPLC analysis result, Closed STR: in % (unit assumed); for HPLC analysis result, Closed STR: sealed state, harsh condition, oven at 80° C.
# Protocol: About 10-30 mg of the sample was stored for 4 weeks in an open state under the accelerated condition (40° C., 75% RH) or in a sealed state under the harsh condition in an oven at 80° C.
# [2] = Thermogravimetric analysis (TGA); type: physicochemical; conditions: heated from 30° C. to 350° C. at 10° C./min; no weight loss in the DSC endothermic section
# Protocol: The TGA was measured using Mettler Toledo TGA/DSC 1 module. About 4-8 mg of the sample is weighed and put into a 100 μL Al crucible (flat-bottomed aluminum crucibles). Then, TGA measurement is performed while the sample is heated from 30° C. to 350° C. at a rate of 10° C./min. During the measurement, nitrogen gas is supplied to the inside of the instrument at a rate of 80 mL/min to prevent the inflow of oxygen and other gases. Data collection and evaluation were performed using the software STARe.
compound,measurement,setting,value
"CC(C)C(=O)N([C@H]1C[C@@H](C(=O)N2CCOCC2)N(C(=O)[C@@H]2CN(C(C)(C)C)C[C@H]2c2ccc(Cl)cc2)C1)[C@H]1CC[C@@H](C)CC1 [Example 1, N-((3S,5S)-1-((3S,4R)-1-(tert-butyl)-4-(4-chlorophenyl)pyrrolidine-3-carbonyl)-5-(morpholine-4-carbonyl)pyrrolidin-3-yl)-N-((1s,4R)-4-methylcyclohexyl) isobutyramide hydrochloride]",chemical stability to heat and humidity,"[1]; 4 weeks under the accelerated condition (40° C., 75% RH) and the harsh condition (80° C.)",showed chemical stability for 4 weeks
same,"HPLC analysis result, Open ACC",[1]; Week 2,97.67
same,"HPLC analysis result, Closed STR",[1]; Week 2,97.73
same,"HPLC analysis result, Open ACC",[1]; Week 4,97.82
same,"HPLC analysis result, Closed STR",[1]; Week 4,97.94
same,"HPLC analysis result, Initial","[1]; initial, before storage",97.7%
same,thermal stability,[2],thermally stable crystalline form
